Test results from ChEMBL document CHEMBL1201862, “PubChem BioAssay data set” (2004).
The source made the active and inactive calls.

Experiments:
[1] = Luminescence Cell-Based Dose Response HTS to Identify Inhibitors of 5'UTR Stem-Loop Driven Prion Protein mRNA Translation in H4 Neuroglioblastoma Cells. [Related pubchem assays: 1827 (Project Summary), 1813 (Primary HTS)]; type: functional
[2] = insulin promoter down-regulators in MIN6 cells, imaging, high-content screening, mouse beta cells (AID 1628); type: functional
[3] = inhibitors of firefly luciferase expression or activity, dose response, H4 neuroglioma cells, luminescence (AID 1990); type: functional, cell-based
[4] = inhibitors of SNCA 5'UTR-driven reporter translation, confirmation, H4 neuroglioma cells, luminescence (AID 1988); type: functional, cell-based
[5] = cytotoxicity in MIN6 insulinoma cells, dose response, cytotoxicity control, cell-based, mouse insulinoma (AID 2122); type: functional;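 also: confirmatory high-throughput counterscreen run to flag cytotoxic compounds; mouse MIN-6 beta cells carrying an insulin promoter eGFP reporter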
[6] = biological target: Glucose-6-phosphate 1-dehydrogenase (Homo sapiens, UniProt P11413); test: human G6PD enzyme inhibitors, dose response, selectivity assay for P. falciparum G6PD inhibitor project, biochemical, fluorescence (AID 504792); type: functional
Chain of Glucose-6-phosphate 1-dehydrogenase (P11413 whole entry): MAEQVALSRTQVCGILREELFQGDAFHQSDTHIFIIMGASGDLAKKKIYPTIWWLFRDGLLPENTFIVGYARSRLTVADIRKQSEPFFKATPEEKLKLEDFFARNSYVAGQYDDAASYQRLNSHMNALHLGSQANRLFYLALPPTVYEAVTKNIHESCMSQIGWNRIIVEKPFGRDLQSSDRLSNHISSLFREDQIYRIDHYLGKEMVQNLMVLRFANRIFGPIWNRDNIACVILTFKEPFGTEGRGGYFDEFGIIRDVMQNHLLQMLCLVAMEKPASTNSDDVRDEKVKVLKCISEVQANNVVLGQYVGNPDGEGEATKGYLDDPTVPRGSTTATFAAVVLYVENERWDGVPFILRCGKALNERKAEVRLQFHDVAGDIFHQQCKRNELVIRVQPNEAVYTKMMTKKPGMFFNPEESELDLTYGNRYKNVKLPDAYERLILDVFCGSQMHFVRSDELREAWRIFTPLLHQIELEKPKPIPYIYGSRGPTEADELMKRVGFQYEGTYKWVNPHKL

[7] = biological target: T1, Heat shock factor protein 1 (Mus musculus, UniProt P38532); test: inhibition of MG132-induced HSE-luciferase signal, confirmation, cell-based, NIH3T3, luminescence, dose retest (AID 2382); type: functional;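 also: NIH3T3 fibroblasts with HSF1-driven luciferase reporter stressed by proteasome inhibitor MG132; luminescence from HSF1-driven luciferase expression after 8 hours of MG132 stress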
T1 sequence (P38532 whole entry): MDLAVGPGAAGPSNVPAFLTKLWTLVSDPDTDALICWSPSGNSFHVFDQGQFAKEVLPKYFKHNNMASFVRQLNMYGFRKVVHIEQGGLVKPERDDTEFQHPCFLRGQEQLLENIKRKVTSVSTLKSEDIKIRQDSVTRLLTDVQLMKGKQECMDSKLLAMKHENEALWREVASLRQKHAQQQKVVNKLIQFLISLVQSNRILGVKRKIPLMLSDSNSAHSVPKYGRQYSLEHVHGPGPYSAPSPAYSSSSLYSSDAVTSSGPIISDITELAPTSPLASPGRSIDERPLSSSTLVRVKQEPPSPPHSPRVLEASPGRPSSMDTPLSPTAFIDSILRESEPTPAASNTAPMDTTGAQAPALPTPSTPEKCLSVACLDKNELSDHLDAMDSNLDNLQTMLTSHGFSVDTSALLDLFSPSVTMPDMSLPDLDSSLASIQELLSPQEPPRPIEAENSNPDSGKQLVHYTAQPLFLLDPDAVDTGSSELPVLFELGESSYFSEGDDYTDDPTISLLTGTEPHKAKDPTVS

[8] = biological target: T2, Exodeoxyribonuclease V (Escherichia coli (strain K12), UniProt P04993+P07648+P08394); test: E. coli RecBCD inhibitors, dose response, counter-screen for AddAB inhibitor project, absorbance, V66 E. coli, mutant T4 phage (AID 492957); type: functional, cell-based, Escherichia coli str. K-12 substr. MG1655
T2 sequence (P04993 whole entry): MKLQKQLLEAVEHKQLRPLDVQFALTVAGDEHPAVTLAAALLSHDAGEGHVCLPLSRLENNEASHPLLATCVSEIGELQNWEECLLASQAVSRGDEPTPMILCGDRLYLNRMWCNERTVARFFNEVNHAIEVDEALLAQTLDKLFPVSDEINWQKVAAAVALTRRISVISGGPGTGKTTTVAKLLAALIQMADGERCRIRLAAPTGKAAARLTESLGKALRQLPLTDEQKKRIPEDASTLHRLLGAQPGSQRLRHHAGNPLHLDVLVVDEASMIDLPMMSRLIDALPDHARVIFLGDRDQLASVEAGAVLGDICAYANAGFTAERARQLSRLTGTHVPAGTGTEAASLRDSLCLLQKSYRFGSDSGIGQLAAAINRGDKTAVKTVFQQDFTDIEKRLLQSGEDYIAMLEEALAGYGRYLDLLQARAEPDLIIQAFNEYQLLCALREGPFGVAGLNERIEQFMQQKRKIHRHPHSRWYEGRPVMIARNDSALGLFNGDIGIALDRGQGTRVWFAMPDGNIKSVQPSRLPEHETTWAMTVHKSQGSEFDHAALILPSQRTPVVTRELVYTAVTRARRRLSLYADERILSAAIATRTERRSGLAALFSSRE
T2 sequence (P07648 whole entry): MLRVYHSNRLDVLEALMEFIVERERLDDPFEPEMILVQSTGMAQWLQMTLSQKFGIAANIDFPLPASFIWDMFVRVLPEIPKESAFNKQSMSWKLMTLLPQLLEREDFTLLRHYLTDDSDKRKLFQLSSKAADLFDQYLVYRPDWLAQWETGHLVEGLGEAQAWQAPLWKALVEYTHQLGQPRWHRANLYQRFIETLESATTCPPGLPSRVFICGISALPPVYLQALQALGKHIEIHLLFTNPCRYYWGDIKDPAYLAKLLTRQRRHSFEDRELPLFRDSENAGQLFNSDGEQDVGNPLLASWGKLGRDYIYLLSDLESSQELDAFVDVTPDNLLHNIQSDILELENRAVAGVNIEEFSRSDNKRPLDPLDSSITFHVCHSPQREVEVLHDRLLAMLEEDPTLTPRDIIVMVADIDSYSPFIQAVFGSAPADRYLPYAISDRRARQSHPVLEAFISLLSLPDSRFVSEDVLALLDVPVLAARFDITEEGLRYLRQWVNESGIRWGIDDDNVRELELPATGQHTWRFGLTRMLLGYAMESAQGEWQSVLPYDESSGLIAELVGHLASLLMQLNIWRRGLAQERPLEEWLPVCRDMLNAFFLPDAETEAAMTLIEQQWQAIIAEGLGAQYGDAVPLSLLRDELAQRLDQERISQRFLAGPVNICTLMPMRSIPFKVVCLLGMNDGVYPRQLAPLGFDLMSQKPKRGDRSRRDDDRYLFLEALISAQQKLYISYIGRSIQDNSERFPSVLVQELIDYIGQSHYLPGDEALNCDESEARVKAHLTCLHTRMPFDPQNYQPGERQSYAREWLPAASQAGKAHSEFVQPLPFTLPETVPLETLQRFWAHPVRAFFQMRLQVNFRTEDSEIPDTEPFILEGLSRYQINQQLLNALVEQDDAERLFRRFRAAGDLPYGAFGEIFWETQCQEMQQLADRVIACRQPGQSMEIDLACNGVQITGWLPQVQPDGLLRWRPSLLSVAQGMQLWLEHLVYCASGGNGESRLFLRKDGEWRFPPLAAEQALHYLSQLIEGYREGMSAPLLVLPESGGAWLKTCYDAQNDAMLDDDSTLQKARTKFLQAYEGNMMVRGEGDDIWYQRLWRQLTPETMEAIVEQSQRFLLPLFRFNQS
T2 sequence (P08394 whole entry): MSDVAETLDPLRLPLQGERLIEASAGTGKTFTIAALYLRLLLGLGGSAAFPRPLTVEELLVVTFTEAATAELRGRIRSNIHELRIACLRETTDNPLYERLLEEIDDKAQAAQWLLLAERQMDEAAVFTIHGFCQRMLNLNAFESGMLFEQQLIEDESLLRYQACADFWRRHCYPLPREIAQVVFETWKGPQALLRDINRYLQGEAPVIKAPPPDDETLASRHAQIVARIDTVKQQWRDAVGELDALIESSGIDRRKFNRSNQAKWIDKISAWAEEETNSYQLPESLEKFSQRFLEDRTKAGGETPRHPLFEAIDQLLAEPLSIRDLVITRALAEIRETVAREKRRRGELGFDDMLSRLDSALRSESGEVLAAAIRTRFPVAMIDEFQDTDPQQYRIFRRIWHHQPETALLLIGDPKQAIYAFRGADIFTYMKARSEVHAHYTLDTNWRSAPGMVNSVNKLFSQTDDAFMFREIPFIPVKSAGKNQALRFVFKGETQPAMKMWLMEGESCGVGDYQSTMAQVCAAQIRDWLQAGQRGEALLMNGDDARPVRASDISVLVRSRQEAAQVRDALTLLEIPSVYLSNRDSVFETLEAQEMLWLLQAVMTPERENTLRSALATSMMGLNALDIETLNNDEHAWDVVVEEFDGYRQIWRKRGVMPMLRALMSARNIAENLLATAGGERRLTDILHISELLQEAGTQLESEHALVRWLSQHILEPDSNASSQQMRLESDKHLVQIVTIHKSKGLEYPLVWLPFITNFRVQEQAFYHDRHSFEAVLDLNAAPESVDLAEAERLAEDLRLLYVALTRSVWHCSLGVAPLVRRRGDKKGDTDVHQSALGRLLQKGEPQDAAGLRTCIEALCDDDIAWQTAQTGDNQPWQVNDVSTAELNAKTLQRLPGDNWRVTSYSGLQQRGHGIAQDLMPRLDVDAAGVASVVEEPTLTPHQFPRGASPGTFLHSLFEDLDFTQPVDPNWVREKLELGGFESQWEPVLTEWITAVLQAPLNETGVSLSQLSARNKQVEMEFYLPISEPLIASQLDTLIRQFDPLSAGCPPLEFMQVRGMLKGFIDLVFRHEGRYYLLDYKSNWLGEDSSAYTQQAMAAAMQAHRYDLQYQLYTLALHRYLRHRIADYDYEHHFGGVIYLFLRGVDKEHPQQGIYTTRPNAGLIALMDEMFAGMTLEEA

[9] = biological target: Large T antigen (Simian virus 40, UniProt P03070); type: functional, Betapolyomavirus macacae;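 also: Confirmatory-stage PubChem screen for compounds that inhibit SV40 T antigen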
Chain of Large T antigen (P03070 whole entry): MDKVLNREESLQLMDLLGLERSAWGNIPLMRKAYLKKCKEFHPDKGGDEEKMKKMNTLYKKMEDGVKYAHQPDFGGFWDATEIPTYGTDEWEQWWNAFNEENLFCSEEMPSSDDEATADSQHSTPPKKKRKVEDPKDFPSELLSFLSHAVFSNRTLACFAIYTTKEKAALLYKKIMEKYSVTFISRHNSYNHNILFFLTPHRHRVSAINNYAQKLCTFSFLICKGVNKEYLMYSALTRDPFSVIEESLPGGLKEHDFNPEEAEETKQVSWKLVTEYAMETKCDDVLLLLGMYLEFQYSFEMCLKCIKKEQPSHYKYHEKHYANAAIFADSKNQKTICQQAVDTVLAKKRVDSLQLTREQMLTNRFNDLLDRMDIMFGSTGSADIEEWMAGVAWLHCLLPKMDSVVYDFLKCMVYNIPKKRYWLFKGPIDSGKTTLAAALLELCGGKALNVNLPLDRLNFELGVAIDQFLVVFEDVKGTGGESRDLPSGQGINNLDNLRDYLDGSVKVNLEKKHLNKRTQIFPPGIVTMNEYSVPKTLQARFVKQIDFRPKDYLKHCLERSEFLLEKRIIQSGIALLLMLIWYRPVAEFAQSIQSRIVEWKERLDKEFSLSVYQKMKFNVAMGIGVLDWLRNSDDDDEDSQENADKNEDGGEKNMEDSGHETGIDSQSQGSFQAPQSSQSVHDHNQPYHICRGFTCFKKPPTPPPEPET

[10] = biological target: T3, Rac GTPase-activating protein 1 (Homo sapiens, UniProt Q9H0H5); test: MgcRacGAP GTPase-activating activity inhibitors, confirmation, biochemical, ADP Hunter fluorescence, primary and confirmatory (AID 624330); type: functional
T3 sequence (Q9H0H5 whole entry): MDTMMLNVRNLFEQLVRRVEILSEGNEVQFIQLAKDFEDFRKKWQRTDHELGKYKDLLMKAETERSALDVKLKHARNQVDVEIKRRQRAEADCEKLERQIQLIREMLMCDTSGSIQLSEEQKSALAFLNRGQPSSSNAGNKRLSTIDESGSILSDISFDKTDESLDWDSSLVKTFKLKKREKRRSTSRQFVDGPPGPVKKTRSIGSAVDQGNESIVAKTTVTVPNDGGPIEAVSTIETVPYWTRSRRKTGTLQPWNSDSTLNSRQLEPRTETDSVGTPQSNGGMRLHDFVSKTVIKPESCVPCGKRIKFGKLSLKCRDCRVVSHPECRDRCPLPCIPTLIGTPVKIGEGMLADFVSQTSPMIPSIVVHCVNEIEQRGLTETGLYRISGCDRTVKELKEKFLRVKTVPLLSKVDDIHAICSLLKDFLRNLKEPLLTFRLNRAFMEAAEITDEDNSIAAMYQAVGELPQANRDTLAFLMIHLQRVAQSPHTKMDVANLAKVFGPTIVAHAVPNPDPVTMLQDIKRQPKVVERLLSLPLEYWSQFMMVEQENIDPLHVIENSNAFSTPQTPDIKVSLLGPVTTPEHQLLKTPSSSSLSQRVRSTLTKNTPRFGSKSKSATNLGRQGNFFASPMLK

[11] = Counterscreen for AddAB inhibitors: absorbance-based bacterial cell-based high throughput dose response assay for inhibitors of bacterial viability. [Related pubchem assays (depositor defined):AID435030, AID449728, AID449731, AID488942, AID488955, AID488956]; type: functional
[12] = tested on: BJ; test: cytotoxicity toward BJ-TERT-LT-ST fibroblasts, dose response, cell-based, RAS-independent, luminescence (AID 1935); type: functional; conditions: Homo sapiens;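 also: BJ fibroblasts immortalized with TERT plus LT and ST oncogenes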
[13] = tested on: BJ; test: cytotoxicity toward BJ-TERT fibroblasts, dose response, cell-based, RAS-independent, luminescence (AID 1933); type: functional; conditions: Homo sapiens
[14] = tested on: BJ; test: cells; type: functional, cell-based; conditions: Homo sapiens
[15] = tested on: BJ; test: cytotoxicity toward Ras-transformed BJeLR fibroblasts, dose response, cell-based, alamar blue fluorescence, cherrypicked samples (AID 2631); type: functional; conditions: Homo sapiens;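 also: confirmatory dose-response assay in RAS-dependent BJ fibroblasts engineered with TERT, LT and ST, with cytotoxicity read by fluorescence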
[16] = cytotoxicity toward DRD oncogenic fibroblasts, dose response, cell-based, non-viral oncogenic, luminescence (AID 1934); type: functional; conditions: Homo sapiens
[17] = tested on: INS1; test: beta cell apoptosis inhibitors, cytokine rescue, dose response, luminescence, retest (AID 449756); type: functional, cell-based; conditions: Rattus norvegicus;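 also: cell death triggered by IL-1 beta plus TNF-alpha plus IFN-gamma mixture; protective hits raise ATP signal compared with cytokine alone wells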

With `CC(C)CCNc1nnnc2c1sc1nc(N3CCOCC3)c3c(c12)CC(C)(C)SC3` the EC50 [1] was > 120 µM (not active), the IC50 [2] was 2.29 µM (active) and the EC50 [3] was 27.9 µM (active). The EC50 [4] was > 120 µM (not active) and the IC50 [5] was 12.5 µM (inactive).
With `Cc1nc2ccccn2c1-c1ccnn1S(=O)(=O)c1ccc(F)cc1` the IC50 [6] was > 80 µM (inactive) and the EC50 [7] was > 195 µM (not active).
With `CC1(C)OC(=O)C(N=Nc2ccc(O)cc2)=C(O)O1` the IC50 [8] was > 119 µM (inactive), the IC50 [9] was 6.72 µM (active) and the IC50 [10] was 20.9 µM (active). The IC50 [11] was > 119 µM (inactive).
For `CC(C)Cc1nc2oc3c(NCC4CCCO4)ncnc3c2c2c1CCC2` (centres undefined), the IC50 [2] was 1.4 µM (active) and the IC50 [5] was 4.96 µM (active).
With `CC(=O)Nc1ccc(NC(=O)CN(c2cccc([N+](=O)[O-])c2)S(C)(=O)=O)cc1` the EC50 [12] was > 150 µM (inconclusive), the EC50 [13] was > 150 µM (not active) and the EC50 [14] was 3.09 µM (inconclusive). For the same compound, the EC50 [15] was 11.8 µM (active), the EC50 [16] was > 150 µM (inconclusive) and the AC50 [17] was 6.91 µM (active).
